In the Kinase Knowledgebase extract (Sharma et al. 2016):

How the values were obtained:
[1] = biological target: EGFR (human), P00533 [T790M]
EGFR (human) = EGFR (human) (UniProt P00533); conditions: a431
[2] = biological target: EGFR (human), P00533 [WT]
Chain of EGFR (human), P00533 [WT] (P00533 whole entry, looked up): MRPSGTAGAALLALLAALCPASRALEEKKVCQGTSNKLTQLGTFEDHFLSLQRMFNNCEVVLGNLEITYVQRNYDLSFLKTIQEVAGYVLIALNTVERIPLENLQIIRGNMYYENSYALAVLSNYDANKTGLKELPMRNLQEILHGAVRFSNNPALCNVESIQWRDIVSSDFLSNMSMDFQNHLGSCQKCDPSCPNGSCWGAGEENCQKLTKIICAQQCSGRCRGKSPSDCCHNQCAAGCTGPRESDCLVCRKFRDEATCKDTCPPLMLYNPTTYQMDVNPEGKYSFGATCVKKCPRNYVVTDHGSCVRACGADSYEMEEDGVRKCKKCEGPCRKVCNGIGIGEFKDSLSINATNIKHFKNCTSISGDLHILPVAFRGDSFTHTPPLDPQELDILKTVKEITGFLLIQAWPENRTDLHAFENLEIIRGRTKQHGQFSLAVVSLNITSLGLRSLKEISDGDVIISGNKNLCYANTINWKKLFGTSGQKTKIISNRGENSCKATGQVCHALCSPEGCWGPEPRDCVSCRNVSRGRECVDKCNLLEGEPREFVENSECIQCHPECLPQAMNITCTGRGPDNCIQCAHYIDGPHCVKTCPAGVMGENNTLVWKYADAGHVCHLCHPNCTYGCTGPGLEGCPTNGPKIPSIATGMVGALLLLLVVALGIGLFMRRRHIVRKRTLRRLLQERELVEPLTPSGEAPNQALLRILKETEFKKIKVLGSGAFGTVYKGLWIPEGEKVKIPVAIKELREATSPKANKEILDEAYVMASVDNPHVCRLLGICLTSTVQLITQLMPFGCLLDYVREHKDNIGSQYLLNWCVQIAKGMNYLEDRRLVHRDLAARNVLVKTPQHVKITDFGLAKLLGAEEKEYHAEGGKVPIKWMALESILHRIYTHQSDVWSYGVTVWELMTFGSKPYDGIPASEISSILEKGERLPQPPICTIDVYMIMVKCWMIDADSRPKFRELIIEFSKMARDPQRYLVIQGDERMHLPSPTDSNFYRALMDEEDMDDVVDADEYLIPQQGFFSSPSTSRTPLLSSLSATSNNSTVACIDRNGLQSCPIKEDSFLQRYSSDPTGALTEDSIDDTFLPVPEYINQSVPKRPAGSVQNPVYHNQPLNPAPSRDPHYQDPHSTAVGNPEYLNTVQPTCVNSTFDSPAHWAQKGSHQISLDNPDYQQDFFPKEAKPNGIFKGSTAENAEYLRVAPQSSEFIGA

Chain of EGFR (human), P00533 [T790M] (P00533 whole entry T790M, looked up): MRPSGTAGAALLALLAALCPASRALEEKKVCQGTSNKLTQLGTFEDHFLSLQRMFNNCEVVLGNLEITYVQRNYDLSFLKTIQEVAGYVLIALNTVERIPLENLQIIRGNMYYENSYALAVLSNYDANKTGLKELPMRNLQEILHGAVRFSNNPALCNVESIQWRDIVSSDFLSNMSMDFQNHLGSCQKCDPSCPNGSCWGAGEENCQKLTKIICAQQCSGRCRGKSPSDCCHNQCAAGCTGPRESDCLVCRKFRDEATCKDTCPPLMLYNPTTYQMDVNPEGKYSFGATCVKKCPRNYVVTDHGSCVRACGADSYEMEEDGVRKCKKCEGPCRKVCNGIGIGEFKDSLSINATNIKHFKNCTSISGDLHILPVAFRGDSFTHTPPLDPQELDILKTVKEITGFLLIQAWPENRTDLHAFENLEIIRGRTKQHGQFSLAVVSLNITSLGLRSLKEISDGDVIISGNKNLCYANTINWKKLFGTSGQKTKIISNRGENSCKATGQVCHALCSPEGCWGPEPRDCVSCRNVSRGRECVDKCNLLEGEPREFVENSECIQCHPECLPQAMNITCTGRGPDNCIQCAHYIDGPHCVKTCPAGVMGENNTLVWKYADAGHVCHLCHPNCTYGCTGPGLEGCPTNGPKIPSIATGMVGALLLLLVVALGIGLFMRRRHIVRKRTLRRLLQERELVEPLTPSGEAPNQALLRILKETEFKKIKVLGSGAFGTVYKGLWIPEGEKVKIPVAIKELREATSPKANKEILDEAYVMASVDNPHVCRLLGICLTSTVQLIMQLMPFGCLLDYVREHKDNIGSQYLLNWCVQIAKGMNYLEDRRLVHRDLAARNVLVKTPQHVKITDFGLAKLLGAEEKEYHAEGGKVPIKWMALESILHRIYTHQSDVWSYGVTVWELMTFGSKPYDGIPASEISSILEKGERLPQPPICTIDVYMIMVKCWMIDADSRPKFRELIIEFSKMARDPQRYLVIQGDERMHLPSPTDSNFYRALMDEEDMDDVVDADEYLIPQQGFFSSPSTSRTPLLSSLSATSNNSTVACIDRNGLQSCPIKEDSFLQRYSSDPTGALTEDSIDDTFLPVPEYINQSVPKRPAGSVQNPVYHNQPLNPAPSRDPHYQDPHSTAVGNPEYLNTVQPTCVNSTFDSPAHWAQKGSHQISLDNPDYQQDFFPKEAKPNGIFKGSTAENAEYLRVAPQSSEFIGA
Chain of EGFR (human) (P00533 whole entry, looked up): as the sequence (P00533 whole entry, looked up) above

Compound | IC50 [1] [nM] | IC50 (EGFR (human)) [nM] | IC50 [2] [nM]
C=CC(=O)NCc1cc(-c2cncnc2Nc2ccc(OCc3ccccn3)c(Cl)c2)on1 | 101 | 2 | 9.1
C=C(CN1CCOCC1)C(=O)NCc1cc(-c2cncnc2Nc2ccc(OCc3ccccn3)c(Cl)c2)on1 | – | 182 | 21.3
C=CC(=O)N1CCCC1c1cc(-c2cncnc2Nc2ccc(OCc3cccc(F)c3)c(Cl)c2)on1 (centres undefined) | – | 131 | –
C=CC(=O)NCc1coc(-c2cncnc2Nc2ccc(OCc3ccccn3)c(Cl)c2)n1 | 13.6 | – | 3.9
C=CC(=O)NCc1coc(-c2c(N)ncnc2Nc2ccc(F)c(Cl)c2)n1 | 50.1 | – | –
Nc1ncnc(Nc2ccc(Oc3ccccc3F)c(Cl)c2)c1-c1nc(CNC(=O)CCO)co1 | – | 826 | –
C=C(CN(C)C)C(=O)NCc1coc(-c2cncnc2Nc2ccc(OCc3ccccn3)c(Cl)c2)n1 | 3.4 | 313 | 3.5
C=CC(=O)N1CCCC(c2cc(-c3cncnc3Nc3ccc(OCc4cccc(F)c4)c(Cl)c3)on2)C1 (centres undefined) | – | 1040 | –
COCCC(=O)NCc1coc(-c2c(N)ncnc2Nc2ccc(Oc3ccccc3F)c(Cl)c2)n1 | – | 291 | –
Cc1ccc(Oc2ccc(Nc3ncnc(N)c3-c3nc(CNC(=O)/C=C/CN(C)C)co3)cc2C)cn1 | – | 326 | –
CN(C)C/C=C/C(=O)NCc1coc(-c2cncnc2Nc2ccc(OCc3ccccn3)c(Cl)c2)n1 | 156 | 119 | 4.5
C=C(CN(C)C)C(=O)NCc1coc(-c2c(N)ncnc2Nc2ccc(F)c(Cl)c2)n1 | 6.9 | 26 | –
C=CC(=O)NCc1coc(-c2cncnc2Nc2ccc(F)c(Cl)c2)n1 | – | 437 | –
C=CC(=O)NCc1coc(-c2c(NC(C)=O)ncnc2Nc2ccc(OCc3ccccn3)c(Cl)c2)n1 | – | 14.2 | –
C=C(CN1CCN(C)CC1)C(=O)NCc1cc(-c2cncnc2Nc2ccc(OCc3ccccn3)c(Cl)c2)on1 | – | 309 | –
CN(C)C/C=C/C(=O)NCc1coc(-c2c(N)ncnc2Nc2ccc(Oc3ccccc3)c(Cl)c2)n1 | – | 78.5 | –
C=CC(=O)NCc1coc(-c2c(N)ncnc2Nc2ccc(Oc3cccnc3)c(Cl)c2)n1 | 22.1 | – | –
C=CC(=O)NCc1coc(-c2c(N)ncnc2Nc2ccc(Oc3cc(Cl)ccc3Cl)c(Cl)c2)n1 | 3.2 | – | 3.9
Nc1ncnc(Nc2ccc(OCc3ccccn3)c(Cl)c2)c1-c1nc(CNC(=O)CCO)co1 | – | 137 | –
C=CC(=O)NCc1coc(-c2c(N)ncnc2Nc2ccc(Oc3ccccc3)c(Cl)c2)n1 | 3.3 | – | 7
C=CC(=O)NCc1cc(-c2cncnc2Nc2ccc(OCc3cccc(F)c3)c(Cl)c2)on1 | 40.8 | 79 | 10.3
C=C(CN(CC)CC)C(=O)NCc1cc(-c2cncnc2Nc2ccc(OCc3ccccn3)c(Cl)c2)on1 | – | 391 | –
C=CC(=O)NCC1COC(c2c(N)ncnc2Nc2ccc(OCc3ccccn3)c(Cl)c2)=N1 (centres undefined) | – | 130 | –
CN(C)C/C=C/C(=O)NCc1cc(-c2cncnc2Nc2ccc(OCc3cccc(F)c3)c(Cl)c2)on1 | – | 111 | –

Compound | IC50 [1] [nM] | IC50 (EGFR (human)) [nM] | IC50 [2] [nM]
C=CC(=O)NCc1coc(-c2c(N)ncnc2Nc2ccc(OCc3ccccn3)cc2F)n1 | 171 | – | 8.5
C=CC(=O)NCc1coc(-c2c(N)ncnc2Nc2ccc(Oc3ccccn3)c(Cl)c2)n1 | 16 | – | 4.2
C=CC(=O)NCc1coc(-c2c(N)ncnc2Nc2ccc(OCc3ccccn3)c(F)c2)n1 | 129 | – | 4.9
C=CC(=O)NCc1coc(-c2c(NC(C)=O)ncnc2Nc2ccc(Oc3cc(C(F)(F)F)nn3C)c(Cl)c2)n1 | 414 | – | 45.4
CN(C)C/C=C/C(=O)NCc1coc(-c2c(N)ncnc2Nc2ccc(OCc3ccccn3)c(Cl)c2)n1 | 161 | 29 | 6.1
C=CC(=O)NCc1coc(-c2c(N)ncnc2Nc2ccc(Oc3ccnn3C)c(Cl)c2)n1 | 125 | 8.4 | 8.4
C=C(CN(C)C)C(=O)NCc1coc(-c2c(N)ncnc2Nc2ccc(Oc3ccc(C)nc3)c(C)c2)n1 | – | 352 | –
O=C(/C=C\CO)NCc1cc(-c2cncnc2Nc2ccc(OCc3ccccn3)c(Cl)c2)on1 | – | 618 | –
C=CC(=O)NCc1cc(-c2cncnc2Nc2ccc(Br)c(Cl)c2F)on1 | – | 65 | –
C=CC(=O)NCc1coc(-c2c(N)ncnc2Nc2ccc(OCc3cccc(F)c3)c(Cl)c2)n1 | 19 | – | 27.7
C=C(CN(C)C)C(=O)NCc1coc(-c2cncnc2Nc2ccc(F)c(Cl)c2)n1 | – | 98.6 | –
C=CC(=O)NCc1coc(-c2c(N)ncnc2Nc2ccc(Oc3ccc(C)nc3)c(C)c2)n1 | 106 | – | –
C=CC(=O)N(C)Cc1cc(-c2cncnc2Nc2ccc(OCc3cccc(F)c3)c(Cl)c2)on1 | – | 68.7 | –
CN(C)C/C=C/C(=O)NCc1coc(-c2c(N)ncnc2Nc2ccc(F)c(Cl)c2)n1 | – | 88 | –
C=CC(=O)NCc1coc(-c2c(N)ncnc2Nc2ccc(Sc3nccn3C)c(Cl)c2)n1 | – | 424 | –
Nc1ncnc(Nc2ccc(Oc3ccccc3F)c(Cl)c2)c1-c1nc(CNC(=O)CO)co1 | – | 159 | –
C=CC(=O)NCc1coc(-c2c(N)ncnc2Nc2ccc(F)c(C)c2)n1 | – | 91.2 | –
CN(C)C/C=C/C(=O)NCc1cc(-c2cncnc2Nc2ccc(OCc3ccccn3)c(Cl)c2)on1 | – | 5 | –
C=C(CN(C)C)C(=O)NCc1cc(-c2cncnc2Nc2ccc(OCc3ccccn3)c(Cl)c2)on1 | 12.3 | 1 | 8.8
C=CC(=O)N1CCC(c2cc(-c3cncnc3Nc3ccc(OCc4cccc(F)c4)c(Cl)c3)on2)CC1 | – | 3080 | –
C=C(CN1CCCC1)C(=O)NCc1cc(-c2cncnc2Nc2ccc(OCc3ccccn3)c(Cl)c2)on1 | – | 266 | –
C=C(CN(C)C)C(=O)NCc1coc(-c2c(N)ncnc2Nc2ccc(OCc3ccccn3)c(Cl)c2)n1 | 2.5 | 190 | 3.2
C=C(CS(C)(=O)=O)C(=O)NCc1cc(-c2cncnc2Nc2ccc(OCc3ccccn3)c(Cl)c2)on1 | – | 289 | –
C=CC(=O)NCCc1cc(-c2cncnc2Nc2ccc(OCc3cccc(F)c3)c(Cl)c2)on1 | – | 504 | –
